The series concerns filter-sterile supernatant of Rhodanobacter R179 (secreted peptidase(s)). Put plainly: Peptide quantification by mass spectrometry after incubation in cell-free supernatant of Rhodanobacter R179. The series is classed as in vitro ADME. Particulars: for peptide detected by mass spectrometry after incubation in supernatant of the R179 dssAB mutant: filter-sterile supernatant of dssAB mutant cultivated in XVM2 (OD600 = 0.4); for peptide detected by mass spectrometry after incubation in supernatant of the R179 dssAB mutant / peptide detected by mass spectrometry after incubation in supernatant of wild-type R179: LC-MS MS1 peak area; for peptide detected by mass spectrometry after incubation in supernatant of wild-type R179: filter-sterile supernatant of wild-type R179 cultivated in XVM2 minimal medium (OD600 = 0.4), light chamber, n = 3 culture supernatants; for Log10(total_area_MS1) / percent_rel_axenic: incubation 1h; for Log10(total_area_MS1): MS1 precursor area; for percent_rel_axenic: peptide relative to axenic; for Total_area MS1 of identified AtPep1 cleavage product (acetylated […]): 1 µM AtPep1, LC-MS [M+2H]; for Total_area MS1 (intact flg22): 1 µM, LC-MS [M+2H]. How it is done: Elicitors were also supplemented into the medium prior to solidification at a final concentration of 1 µM. The flg22 ([…]) and AtPep1 ([…]) peptides were synthesized by EZbiolab. elf18^R179 (Ac-[…]) and elf18 (Ac-[…]) were synthesized by GenScript and EZbiolab, respectively. For inoculation with the bacterial supernatant, bacteria were cultivated overnight in XVM2 minimal medium (20 mM NaCl, 10 mM (NH4)2SO4, 5 mM MgSO4, 1 mM CaCl2, 0.16 mM KH2PO4, 0.32 mM K2HPO4, 0.01 mM FeSO4, 10 mM fructose, 10 mM sucrose, 0.03% Casamino acids, pH 6.7)[76] to a final concentration of OD600 = 0.4. Bacteria were pelleted by centrifugation (11,600 g, 2 min), and the supernatant was sterile-filtered using filter units with MF-Millipore membrane (0.22 µm; Millex). The supernatant was incubated in boiling water for 30 min for heat treatment. Then, 25 ml of 1× MS with 20 g l^−1 Bacto Agar was mixed with 25 ml of supernatant prior to medium solidification and poured into square petri dishes. Sterilized seeds were placed on solidified agar in square petri dishes and vertically incubated for 14 days.
Bacterial supernatants were prepared as described in ‘Agar-based cultivation of axenic plants and co-cultivation with bacteria, bacterial supernatants and elicitors’. Here, additionally, the peptides dRGF1 (DYSNPGHHP-Hyp-RHN) and PSY1 (D-Y(SO3H)-[…]-Hyp-Hyp-S) synthesized by Scilight Peptide were incubated for 1 h with 1 µM of peptides in a plant cultivation light chamber (day-light condition; see ‘Plant cultivation conditions’), and the samples were frozen at −20 °C until further processing. For the investigation of AtPep1 degradation, the AtPep1 peptide was first modified by acetylation (six to seven times). To this end, 100-µl aliquots of peptides were treated with 10 µl of NHS acetate solution (1 M NHS acetate in 50% ACN/PBS) and incubated for 30 min with shaking. The reaction was quenched by the addition of 100 µl of 100 mM Tris-HCl (pH 8.5) and incubated for 10 min. For comparison of the non-acetylated peptides with the above-described modified AtPep1 peptides, aliquots of the non-acetylated peptides were processed as described above, but without the modifying NHS reaction. To this end, 100-µl aliquots of the sample were mixed with 100 µl of PBS buffer (137 mM NaCl, 2.7 mM KCl, 10 mM Na2HPO4, 1.8 mM KH2PO4; pH 7.4). The samples were then further diluted with 100 µl of 100 mM Tris-HCl (pH 8.5) and incubated for 10 min. All samples were acidified with 5 µl of TFA and desalted using StageTips with C18 Empore disk membranes (3M)[109]. The samples were dried in a vacuum evaporator and dissolved in 10 µl of 2% ACN (0.1% TFA for analysis).
The samples were analysed using an EASY-nLC 1200 (Thermo Fisher) coupled to a QExactive Plus mass spectrometer (Thermo Fisher). Peptides were separated on 16-cm frit-less silica emitters (New Objective, 75 µm inner diameter), packed in-house with reversed-phase ReproSil-Pur C18 AQ 1.9 µm resin (Dr. Maisch). Peptides were loaded on the column and eluted for 50 min using a segmented linear gradient of 5% to 95% solvent B (0 min, 5% B; 0–5 min, 15% B; 5–35 min, 50% B; 35–45 min, 95% B; 45–50 min, 95% B) (solvent A: 0% ACN, 0.1% FA; solvent B: 80% ACN, 0.1% FA) at a flow rate of 300 nl min^−1. Mass spectra were acquired in data-dependent acquisition mode with a TOP10 method. Mass spectrometry spectra were acquired in the Orbitrap analyser with a mass range of 300–1,500 m/z at a resolution of 70,000 full width at half maximum (FWHM) and a target value of 3 × 10^6 ions. Precursors were selected with an isolation window of 1.3 m/z. Higher-energy collision dissociation (HCD) fragmentation was performed at a normalized collision energy of 25. Tandem mass spectrometry (MS/MS) spectra were acquired with a target value of 5 × 10^5 ions at a resolution of 17,500 FWHM, a maximum injection time of 85 ms and a fixed first mass of 100 m/z. […]

Setting [1] is: R179 dssAB mutant supernatant, XVM2 medium, replicate 1.
Setting [2] is: R179 dssAB mutant supernatant, XVM2 medium, replicate 2.
Where [3] appears, read: R179 dssAB mutant supernatant, XVM2 medium, replicate 3.
Setting [4] is: R179 wt supernatant, XVM2 medium, replicate 1.
Setting [5] is: R179 wt supernatant, XVM2 medium, replicate 2.
Where [6] appears, read: R179 wt supernatant, XVM2 medium, replicate 3.
Setting [7] is: axenic XVM2 medium control, replicate 1.
The mark [8] stands for this setting: axenic XVM2 medium control, replicate 2.
[9] abbreviates: axenic XVM2 medium control, replicate 3.
The mark [10] stands for this setting: supernatant of wt R179 in XVM2 (OD600 = 0.4), 1h, replicate 1.
[11] abbreviates: supernatant of wt R179 in XVM2 (OD600 = 0.4), 1h, replicate 2.
Where [12] appears, read: supernatant of wt R179 in XVM2 (OD600 = 0.4), 1h, replicate 3.

Where no end group is shown, it is not given here.

Consider three substances from article PMC11928319 (Nature Plants, 2025).

In the case of ATKVKAKQRGKEKVSSGRPGQHN [AtPep1], the “traces of AtPep1 detected after incubation in R179 supernatants” value (1 µM peptide, 1 h, R179 supernatant in XVM2, AtPep1 acetylated before LC-MS) is reported as under 0.01%. Moreover, the “peptide detected by mass spectrometry after incubation in supernatant of the R179 dssAB mutant” value (“peptide detected … of the R179 dssAB mutant” below) (1 µM peptide, 1 h, n = 3) is given as “depleted”. For the same substance, the “peptide detected by mass spectrometry after incubation in supernatant of wild-type R179” value (1 µM peptide, 1 h) is listed as “depleted”. Further, the “Log10(total_area_MS1)” value under setting [1] was determined as 6.423; the “Log10(total_area_MS1)” value under setting [2] is listed as 6.556; the “Log10(total_area_MS1)” value under setting [3] is recorded as 5.255; the “Log10(total_area_MS1)” value under setting [4] is 7.379; the “Log10(total_area_MS1)” value under setting [5] stood at 5.86; the “Log10(total_area_MS1)” value under setting [6] turned out to be 6.66. Moreover, the “Log10(total_area_MS1)” value runs as follows: under setting [7], 10.4254; under setting [8], 10.4615; under setting [9], 10.4458. Besides, the percent_rel_axenic runs as follows: under setting [1], 0.0095%; under setting [2], 0.0129%; under setting [3], 0.0006%; under setting [4], 0.086%; under setting [5], 0.0026%; under setting [6], 0.0164%. For the same substance, the percent_rel_axenic reads like this: under setting [7], 95.7106%; under setting [8], 103.993%; under setting [9], 100.296%. The “Total_area MS1 of identified AtPep1 cleavage product (acetylated […])” value stood at 2.38E+09 (supernatant of R179 dssAB mutant in XVM2 (OD600 = 0.4), 1h, replicate 1); 1.79E+09 (supernatant of R179 dssAB mutant in XVM2 (OD600 = 0.4), 1h, replicate 2); 2.15E+09 (supernatant of R179 dssAB mutant in XVM2 (OD600 = 0.4), 1h, replicate 3); 1.79E+09 under setting [10]; 1.66E+09 under setting [11]; 1.89E+09 under setting [12].

Consider Ac-SKEKFERTKPHVNVGTIG [elf18], for which the “peptide detected … of the R179 dssAB mutant” value (1 µM peptide, 1 h, n = 3) is reported as “depleted”. Besides, the “peptide detected by mass spectrometry after incubation in supernatant of wild-type R179” value (1 µM peptide, 1 h) was “depleted”. Also, the “Log10(total_area_MS1)” value under setting [1] came out at 0; the “Log10(total_area_MS1)” value under setting [2] is on record as 0; the “Log10(total_area_MS1)” value under setting [3] is recorded as 0; the “Log10(total_area_MS1)” value under setting [5] is listed as 0; the “Log10(total_area_MS1)” value under setting [6] came to 0; the “Log10(total_area_MS1)” value under setting [7] is 10.4989. Also, the “Log10(total_area_MS1)” value is 10.552 under setting [8] and 10.527 under setting [9]. The same substance had a percent_rel_axenic under setting [1] of 0%; a percent_rel_axenic under setting [2] of 0%; a percent_rel_axenic under setting [3] of 0%; a percent_rel_axenic under setting [4] of 0%; a percent_rel_axenic under setting [5] of 0%; a percent_rel_axenic under setting [6] of 0%. Also, the percent_rel_axenic is, setting by setting: under setting [7], 93.8398%; under setting [8], 106.053%; under setting [9], 100.108%.

Turning to QRLSTGSRINSAKDDAAGLQIA [flg22], the “peptide detected … of the R179 dssAB mutant” value (1 µM peptide, 1 h, n = 3) was “efficient and rapid (1 h) proteolytic degradation”. In addition, where the note is “1 µM peptide, 1 h”, the “peptide detected by mass spectrometry after incubation in supernatant of wild-type R179” value was “efficient and rapid (1 h) proteolytic degradation”. The “peptide detected by mass spectrometry after incubation in heat-treated supernatant of wild-type R179” value (1 µM peptide, 1 h, supernatant boiled 30 min, XVM2, LC-MS MS1 peak area, n = 3) was “detected”. For the same substance, the “Log10(total_area_MS1)” value is, setting by setting: under setting [1], 0; under setting [2], 0; under setting [3], 0; under setting [5], 0; under setting [6], 0; under setting [8], 8.543. For the same substance, the “Log10(total_area_MS1)” value under setting [9] worked out at 8.745. Further, the percent_rel_axenic reads like this: under setting [1], 0%; under setting [2], 0%; under setting [3], 0%; under setting [4], 0%; under setting [5], 0%; under setting [6], 0%. Besides, the percent_rel_axenic under setting [8] worked out at 75.7327% and the percent_rel_axenic under setting [9] came to 120.41%. Further, the “Total_area MS1 (intact flg22)” value (axenic XVM2 medium, 1h, replicate 2) turned out to be 3.04E+08; the “Total_area MS1 (intact flg22)” value (axenic XVM2 medium, 1h, replicate 3) was determined as 4.20E+08; the “Total_area MS1 (intact flg22)” value (heat-treated (HK-wt) supernatant of wt R179 in XVM2, 1h, replicate 1) is on record as 1.96E+09; the “Total_area MS1 (intact flg22)” value (heat-treated (HK-wt) supernatant of wt R179 in XVM2, 1h, replicate 2) was found to be 3.13E+09; the “Total_area MS1 (intact flg22)” value (heat-treated (HK-wt) supernatant of wt R179 in XVM2, 1h, replicate 3) is reported as 9.82E+08; the “Total_area MS1 (intact flg22)” value under setting [10] was found to be 0.00E+00. For the same substance, the “Total_area MS1 (intact flg22)” value by setting is: under setting [11], 0.00E+00; under setting [12], 0.00E+00.
